Patent US20190269752A1, “Methods for the Prevention or Treatment of Epilepsy” (Duke University, priority 2018, published 2019)

Legend:
kindled TrkB^F616A mice [1] = test: Kindling model, 1NMPP1 treatment in the absence of a preceding evoked seizure; assay type: in vivo; conditions: no preceding evoked seizure, seizure evoked six days after cessation
Protocol: (§1) Experiments were performed as previously described (He et al. 2010, He et al. 2014). A bipolar stimulating and recording electrode was inserted into the right amygdala (1.0 mm posterior, 2.9 mm lateral to bregma; 4.6 mm below dura). A skull screw was placed over the left frontal lobe as a ground electrode. After a postoperative recovery period of at least 5 days, animals were connected to a Grass Stimulator and monitored by both video and EEG. The current required to evoke an electrographic seizure (electrographic seizure threshold [EST]) was determined by applying a 1 s train of 1 msec biphasic-rectangular pulses at 60 Hz beginning at 20 μA. Additional stimulations were given in 20 μA increments at 1 min intervals until an electrographic seizure was detected. Animals then received two stimulations per day at the EST, with the behavioral seizure scores classified according to a modification of the Racine scale for mice (Borges et al., 2003; Racine, 1972): 0, normal activity; 1, arrest and rigid posture; 2, head nodding; 3, unilateral forelimb clonus; 4, rearing with bilateral forelimbs clonus; 5, rearing and falling; 6, tonic-clonic seizures with violent running and/or jumping. The criterion for “kindled” was the occurrence of three consecutive seizures of class 4 or greater, with limb clonus/tonus lasting at least 12 s.
(§2) Design of individual experiments is presented in panel A of FIGS. 1-5. All “post-kindling seizures” (see FIG. 1A) were evoked with a stimulation intensity determined by assessing the EST a second time, typically 6 days after evoking the “final kindled seizure” the EST was determined by administering stimulations in 20 μA increments every 1 min, beginning at 20 μA, until an electrographic seizure was evoked.
Prior to each administration, stock 100 mM 1NMPP1 was dissolved in a solubilization buffer containing 0.9% NaCL and 2.5% Tween-20 to a concentration of 1.67 mg/mL and dosed at 16.6 ug/g IP every 12 h for a total of five treatments. Vehicle injection served as a control. […]

TrkB kinase = target: T1, TrkB kinase (Mus musculus, UniProt P15209); conditions: WT mice (Chen et al. 2005, Liu et al. 2013); cited from earlier work
T1 construct: host or cells: wild type (C57/bl6) mice, endogenous TrkB

kindled TrkB^F616A mice [2] = test: Kindling model, 1NMPP1 treatment initiated after an evoked seizure (chemical-genetic inhibition of TrkB kinase); assay type: in vivo
Source text: All animal procedures were approved by the Institutional Animal Care and Use Committee (IACUC) at Duke University and conform to the National Institutes of Health and Duke University institutional guidelines for the care and use of experimental animals. Animals were maintained on a 12-hour light/dark cycle with food and water available ad libitum. Wild type (WT) adult (8-12 wk) C57/bl6 male mice were obtained from Charles River. TrkB^F616A mice were originally obtained from Dr. David Ginty (Chen et al. 2005) and backcrossed to the C57/bl6 line for at least seven generations. This knockin mouse harbors a point mutation on the TrkB allele, substituting an alanine for phenylalanine within the ATP binding pocket of the TrkB kinase domain. This mutation renders TrkB protein uniquely susceptible to kinase inhibition by small molecule derivatives of the general kinase inhibitor PP1, including 1-(1,1-dimethylethyl)-3-(1-naphthalenylmethyl)-1H-pyrazolo[3,4-d]pyrimidin-4-amine (1NMPP1). […] Both male and female adult (8-12 wk) homozygous mice were used.
(§3) Video and EEG recordings were analyzed by a blinded, trained observer who quantified behavioral seizure class and duration of both electrographic and behavioral seizure.
Experiments were performed as previously described (He et al. 2010, He et al. 2014). A bipolar stimulating and recording electrode was inserted into the right amygdala (1.0 mm posterior, 2.9 mm lateral to bregma; 4.6 mm below dura). A skull screw was placed over the left frontal lobe as a ground electrode. After a postoperative recovery period of at least 5 days, animals were connected to a Grass Stimulator and monitored by both video and EEG. The current required to evoke an electrographic seizure (electrographic seizure threshold [EST]) was determined by applying a 1 s train of 1 msec biphasic-rectangular pulses at 60 Hz beginning at 20 μA. Additional stimulations were given in 20 μA increments at 1 min intervals until an electrographic seizure was detected. […]
Design of individual experiments is presented in panel A of FIGS. 1-5. All “post-kindling seizures” (see FIG. 1A) were evoked with a stimulation intensity determined by assessing the EST a second time, typically 6 days after evoking the “final kindled seizure” the EST was determined by administering stimulations in 20 μA increments every 1 min, beginning at 20 μA, until an electrographic seizure was evoked. […]

kindled WT mice = test: Kindling model, treatment initiated after an evoked seizure in wild type mice; assay type: in vivo; conditions: 1NMPP1 treatment of WT animals (n=9) following Post-Kindling Seizure #1, p<0.01
Source text: All animal procedures were approved by the Institutional Animal Care and Use Committee (IACUC) at Duke University and conform to the National Institutes of Health and Duke University institutional guidelines for the care and use of experimental animals. Animals were maintained on a 12-hour light/dark cycle with food and water available ad libitum. Wild type (WT) adult (8-12 wk) C57/bl6 male mice were obtained from Charles River. TrkB^F616A mice were originally obtained from Dr. David Ginty (Chen et al. 2005) and backcrossed to the C57/bl6 line for at least seven generations. […]
as §3
Experiments were performed as previously described (He et al. 2010, He et al. 2014). […] After a postoperative recovery period of at least 5 days, animals were connected to a Grass Stimulator and monitored by both video and EEG. The current required to evoke an electrographic seizure (electrographic seizure threshold [EST]) was determined by applying a 1 s train of 1 msec biphasic-rectangular pulses at 60 Hz beginning at 20 μA. Additional stimulations were given in 20 μA increments at 1 min intervals until an electrographic seizure was detected. […]

[3] = test system: epileptic animals (KA-SE); test: Spontaneous recurrent seizures (video-EEG) after kainic acid-induced status epilepticus (KA-SE model of TLE); assay type: in vivo, mice; conditions: six animals; for SRS during two weeks following cessation of treatment: after carbamazepine 800 mg/kg/day in food pellets for two weeks; for SRS during two weeks on treatment: carbamazepine 800 mg/kg/day in food pellets for two weeks
Source text: Determining whether pY816 may be beneficial in epileptic animals required modification of our study of the kainic acid (KA)-status epilepticus (SE) model. To more closely mimic the clinical scenario in which patients seek medical attention for established TLE, we induced KA-SE and then conducted video-EEG recordings to detect spontaneous recurrent seizures during baseline periods of two to four weeks until they developed TLE prior to treating with pY816 peptide. In contrast to just three days of treatment with pY816 deployed in previous studies, we sought a more prolonged treatment with pY816 for the current experiments, namely two weeks. The intravenous route of administration used for three days in the prior studies was not feasible for two weeks, leading us to ask whether treatment via intraperitoneal route could inhibit activation of PLCγ1. We used the phosphorylation of residue Y783 of PLCγ1 detected on western blot of brain lysates as a surrogate measure of PLCγ1 activation.
Having verified that intraperitoneal administration of pY816 inhibited PLCγ1 activation, we then asked whether treatment with pY816 initiated after onset of epilepsy and continued for two weeks would reduce the severity of epilepsy or even induce a remission. Towards that end, we induced KA-SE but then followed the animals for several weeks until they developed TLE as assessed by detection of SRS in continuous video-EEG recordings. We quantified the number of SRS in each animal by blinded review of video-EEG recordings during three distinct two week epochs (FIG. 8): a) baseline; b) treatment with pY816 (n=9) or Scr control (n=6), 20 mg/kg IP twice daily for two weeks (on Tx); c) following termination of treatment (Post Tx). As noted in FIG. 8, following induction of status epilepticus induced by infusion of kainic acid into amygdala (Gu et al 2015) animals underwent continuous video-EEG recording to detect spontaneous recurrent seizures. Following baseline recording of two weeks, animals were treated with either pY816 or Scr control peptide (20 mg/kg) twice daily for two weeks (Day 15-28). Video-EEG recording continued for two weeks following termination of treatment (Post-treatment).
Results are shown in FIG. 9, where each symbol represents the number of seizures experienced by a given animal during Baseline, Treatment (Tx), or Post-treatment (Post Tx) periods. Horizontal bars designate median. Treatment (Tx) consisted of either pY816 or Scr control given 20 mg/kg twice daily for two weeks. Note that seizure detection was performed by analyses of video-EEG recordings by two blinded investigators.
Antiseizure drugs in current clinical use provide symptomatic relief of seizures in many but not all patients, but seizures typically recur upon cessation of the drug. To verify that similar findings occur in our animal model, we tested the effect of an antiseizure drug in current clinical use in our model (carbamazepine). We infused additional animals with KA and assessed the occurrence of SRS with continuous video-EEG monitoring for several weeks. […] Thus, like TLE in humans, continuous treatment with an antiseizure drug suppresses seizures, yet seizures recur upon discontinuation of treatment.

kindled mice = test: Kindling model, carbamazepine treatment after an evoked seizure; assay type: in vivo; conditions: carbamazepine 20 mg/kg IP at four hour intervals for two days following Post-Kindling Seizure #1
Protocol: as §1, §2
Carbamazepine (Sigma) was dissolved in a solubilization buffer of 2% Tween-80 and 70% propylene glycol at a concentration of 2 mg/mL and administered at a dose of 20 mg/kg, a dose of carbamazepine sufficient to produce therapeutic blood levels (Grabenstatter et al. 2007). Treatments were given every 4 h for two days. […]

T1 sequence (P15209 32-821): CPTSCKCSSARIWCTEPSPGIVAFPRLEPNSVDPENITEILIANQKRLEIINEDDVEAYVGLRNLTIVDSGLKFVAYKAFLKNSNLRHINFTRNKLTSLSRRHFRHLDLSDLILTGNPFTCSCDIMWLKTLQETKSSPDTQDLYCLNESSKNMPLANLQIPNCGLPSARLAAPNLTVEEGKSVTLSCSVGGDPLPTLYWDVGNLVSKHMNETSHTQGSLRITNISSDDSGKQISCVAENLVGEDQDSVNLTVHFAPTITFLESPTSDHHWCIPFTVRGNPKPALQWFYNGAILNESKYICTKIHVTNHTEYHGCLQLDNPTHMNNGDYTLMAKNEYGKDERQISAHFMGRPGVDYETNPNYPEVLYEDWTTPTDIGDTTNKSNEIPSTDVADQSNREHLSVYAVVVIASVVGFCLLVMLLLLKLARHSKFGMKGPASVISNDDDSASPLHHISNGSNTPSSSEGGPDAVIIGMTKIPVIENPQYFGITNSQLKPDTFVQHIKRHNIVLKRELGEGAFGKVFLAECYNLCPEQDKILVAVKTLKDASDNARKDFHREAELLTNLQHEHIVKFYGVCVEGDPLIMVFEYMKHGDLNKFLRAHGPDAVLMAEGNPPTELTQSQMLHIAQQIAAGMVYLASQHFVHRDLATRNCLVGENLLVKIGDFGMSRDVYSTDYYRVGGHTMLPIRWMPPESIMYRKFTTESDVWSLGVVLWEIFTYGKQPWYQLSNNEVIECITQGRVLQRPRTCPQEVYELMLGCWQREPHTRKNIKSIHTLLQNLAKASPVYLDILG

Row | SMILES | Duration of electrographic seizure versus vehicle (kindled TrkB^F616A mice [1]; 1NMPP1 for two days (IP and drinking water) six days after final kindled seizure) | Duration of behavioral seizure versus vehicle (kindled TrkB^F616A mice [1]; 1NMPP1 for two days) | Seizure class versus vehicle (kindled TrkB^F616A mice [1]; 1NMPP1 for two days) | Detectable effect in WT mice (TrkB kinase) | Duration of electrographic seizure, Post-Kindling Seizure #2 (kindled TrkB^F616A mice [2]; 1NMPP1 16.6 ug/g IP every 12 h, five treatments, plus 25 μM in drinking water, initiated immediately following Post-Kindling Seizure #1, n=16, vehicle 56.6±7.6 s, p<0.01, Final Kindled Sz 43.8±4.5 s) | Duration of behavioral seizure, Post-Kindling Seizure #2 (kindled TrkB^F616A mice [2]; 1NMPP1 16.6 ug/g IP every 12 h, five treatments, plus drinking water, after Post-Kindling Seizure #1, vehicle 139.8±16.5 s, p<0.01) | Behavioral seizure class of Post-Kindling Seizure #2 (kindled TrkB^F616A mice [2]; 1NMPP1 after Post-Kindling Seizure #1, versus vehicle) | Number of animals with subconvulsive (less than Class 4) Post-Kindling Sz #2 (kindled TrkB^F616A mice [2]; 1NMPP1 following Post-Kindling Sz #1, 33 animals received 1NMPP1 or pY816, controls 1 of 28) | Duration of electrographic seizure, Post-Kindling Sz #2 (kindled WT mice; Post-Kindling Sz #1 35.1±5.3 s) | Duration of behavioral seizure, Post-Kindling Sz #2 (kindled WT mice; Post-Kindling Sz #1 72.4±10.2 s) | SRS during two weeks following cessation of treatment [3] | SRS during two weeks following cessation of treatment ([3]; listed as Carbamazepine) | SRS during two weeks on treatment [3] | SRS during two weeks on treatment ([3]; listed as Carbamazepine) | Duration of behavioral seizure, Post-Kindling Sz #2, versus vehicle (kindled mice) | Seizure class, Post-Kindling Sz #2, versus vehicle (kindled mice) | Duration of electrographic seizure, Post-Kindling Sz #2, versus vehicle (kindled mice; Sz #2 evoked fourteen days after last dose)
1 | CC(C)(C)n1nc(Cc2cccc3ccccc23)c2c(N)ncnc21 [1NMPP1, 1-(1,1-dimethylethyl)-3-(1-naphthalenylmethyl)-1H-pyrazolo[3,4-d]pyrimidin-4-amine] | No differences were detected | No differences were detected | No differences were detected | does not have any detectable effect | 29.2 ± 3.8 s | 63.5 ± 10 s | nonsignificant trend toward reduction | 4 | 67.4 ± 13.5 s | 107.6 ± 10.5 s |  |  |  |  |  |  | 
2 | NC(=O)N1c2ccccc2C=Cc2ccccc21 [carbamazepine, Carbamazepine] |  |  |  |  |  |  |  |  |  |  | seizures recurred in each animal | seizures recurred following cessation of treatment in each of the six animals | reduced in each of the six animals | effectively suppressed SRS in all but one animal | No differences were detected | No differences were detected | No differences were detected
